Reference: article PMC2362044, “A potent nonporphyrin class of photodynamic therapeutic agent: cellular localisation, cytotoxic potential and influence of hypoxia” (British Journal of Cancer, 2005)
Where two headings read alike, the source gives them in different places.

Experiments:
[1] = test system: HeLa cells; experiment: MTT cell viability assay under hypoxic conditions (1% oxygen); type: cell-based, human; details: hypoxia 1% oxygen; for EC50: Homo sapiens
Procedure: (§1) Cells were exposed to low oxygen conditions in a hypoxia chamber (Coy Labs). Exponentially growing cells plus media were equilibrated in the hypoxia chamber for 24 h. The hypoxia chamber consisted of an airtight glove box, with the atmosphere continuously monitored by an oxygen analyser. An oxygen concentration of 1% was maintained throughout the chamber, with the balance comprised of 5% CO2, nitrogen and water vapour from a humidified chamber.
(§2) Cells were seeded in 96-well flat-bottomed microtitre plates (5000 cells well^−1) and incubated at 37°C in a 5% CO2 incubator for 24 h. Cells were then incubated with varying concentrations of photosensitiser (1 × 10^−9 to 1 × 10^−4 M) in the dark for 3 h at 37°C. The ADPM compound-laden medium was then removed, the cells were washed with PBS and fresh culture medium was added to each well. This was followed by light irradiation with a broad-spectrum red light source (600–750 nm) via a Waldmann PDT1200L light delivery system. For this study, fluences (light exposures) of either 8 or 16 J cm^−2, at a dose rate of 80 mW cm^−2, were used. Following irradiation, the cells were incubated for a further 48 h before being assessed for cell viability by a standard MTT assay (Sigma). The subsequent colour change produced by viable cells was quantified using a plate reader (VICTOR^2 1420 multilabel HTS counter, Wallac). […] The dark toxicity of each compound was also assessed.
(§3) For cell viability experiments performed under hypoxic conditions, cells were cultured in a hypoxia chamber as described above. Varying concentrations of ADPM compounds were made using medium equilibrated within the hypoxic environment. After 3 h, the medium containing photosensitiser was removed, the cells were washed with PBS to remove excess compound and fresh, equilibrated medium was added to each well. This was followed by light irradiation under hypoxic conditions with the broad-spectrum red light source as before.
(§4) Prism ([…]) was used to graph the data obtained from the MTT assays and the uptake/clearance experiments. This program allows nonlinear regression analysis and the generation of sigmoidal dose–response curves. Prism also automatically calculates EC50 values. Statistical analysis was performed using the ANOVA test (Prism). Significant differences were detected using the Bonferroni multiple comparison test. P-values <0.05 were considered statistically significant.

[2] = test system: MRC5 cells; experiment: as above; type: cell-based, human; details: MRC5, hypoxia 1% oxygen; for EC50: Homo sapiens
Procedure: as §1, §2, §3, §4

[3] = test system: human tumour cell lines; experiment: Light-induced toxicity (MTT) assays over a broad range of cell lines; type: cell-based; details: for EC50: Homo sapiens, read-out: EC50 values, range between the different cell lines; for EC50 values, light-induced toxicity (in words): broad range of human tumour cell lines
Procedure: All cell lines unless otherwise stated were obtained from the American Type Culture Collection. HeLa, MRC5, HT-1080, MDA-MB-231, MCF-7 and T47-D cells were cultured in minimum essential medium (MEM) supplemented with 10% (v v^−1) foetal calf serum (FCS), 1% (v v^−1) non-essential amino acids, 50 U ml^−1 penicillin, 50 μg ml^−1 streptomycin, 20 mM HEPES and 1% (v v^−1) L-glutamine (Gibco-BRL). SW480, SW620 (obtained from Professor D Croke, Royal College of Surgeons, Dublin), A2780 and A2780cp70 cells (Obtained from Professor R Brown, Cancer Research UK, Beatson Laboratories, Glasgow) were cultured in RPMI-1640 medium plus the above-mentioned supplements. All cells were maintained in 5% CO2 (v v^−1) and 21% O2 (v v^−1) at 37°C unless otherwise stated.
as §2, §4

[4] = test system: HeLa cells; experiment: Cellular uptake and clearance (fluorescence microscopy); type: cell-based, human
Procedure: (§5) Cells were seeded at 30 000 cells well^−1 in chamber slides and allowed to adhere for 24 h. For the uptake studies, ADPM01 (1 × 10^−5 M) was then added to each chamber and incubated at 37°C in the dark. Following appropriate incubation periods (5 min–6 h), the cells were washed four times with media to remove all free photosensitisers. The cells were then fixed with 3.7% formaldehyde/PBS for 15 min at 37°C, after which the cells were washed twice with PBS. Mounting fluid (Vectashield) and a coverslip were then placed on each slide. […] In this case, the cells were fixed at various time points (15 min – 24 h) after removal of the drug. The slides were then viewed using an Axio fluorescent microscope (Zeiss). A DAPI filter (Band pass 356) was used to accurately count the number of cells in each field of view and a rhodamine filter (Long pass 590) was used to quantify fluorescence from ADPM01. LabWorks version 4.0 (Bioimaging Systems) was used to calculate the average fluorescence intensity of ADPM01 per cell.
as §4

[5] = test system: MRC5 cells; experiment: as above; type: cell-based, human; details: MRC-5, 1 × 10^−5 M for 3 h, then drug removed
Procedure: as §5, §4

[6] = test system: HeLa cells; experiment: Subcellular localisation by confocal laser-scanning microscopy; type: cell-based, human; details: 1 × 10^−5 M, 1 h
Procedure: Cells, grown on eight-well chamber slides (Nunc), were incubated in the dark at 37°C with 1 × 10^−5 M ADPM01 for 1 h. The medium was removed and the cells then treated with 250 nM MitoTracker Green (Molecular Probes) or 100 nM ER Tracker Blue (Molecular Probes) for 25 min. Prior to visualisation, excess probe was washed off by rinsing in PBS four times and cells were fixed in 3.7% formaldehyde/PBS. Cells were mounted as above and image analysis was performed using a LSM510 META confocal laser-scanning microscope (Zeiss) equipped with an × 40 numerical aperture 1.0 objective, with a pinhole of 100 μm in diameter being used to capture each image at a resolution of 512 × 512 pixels. MitoTracker Green was excited by a 488 nm argon laser and ER Tracker Blue was excited by a UV laser (364 nm), while ADPM01 was excited by a 543 nm helium neon laser. For simultaneous detection of MitoTracker Green and ADPM01, a 560 nm long pass filter was used in channel 1 (red) for ADPM01, while a 505–530 nm band pass filter was used in channel 2 (green) for MitoTracker Green. For dual detection of ER Tracker Blue and ADPM01, a long pass filter of 560 nm was used in channel 1 (red) for ADPM01 and a 385–470 nm band pass filter was used in channel 2 (blue) for ER Tracker Blue. […]

[7] = 0 J cm^−2, read-out: EC50 (M) (dark)
[8] = 8 J cm^−2, read-out: EC50 (M) (8 J cm^−2)
[9] = 16 J cm^−2, read-out: EC50 (M) (16 J cm^−2)
[10] = 8 J cm^−2, all cell lines of Table 1
[11] = 16 J cm^−2, all cell lines of Table 1

Row | EC50 [1, 7] [M] | EC50 [1, 8] [M] | EC50 [1, 9] [M] | retention at 3 h post-withdrawal (clearance) ([4]; 1 × 10^−5 M for 3 h, then drug removed) [%] | cellular uptake, accumulated by 3 h ([4]; 1 × 10^−5 M, 37°C in the dark, 6 h period) [%] | retention 3 h post-withdrawal (clearance) [5] [%] | co-localisation with endoplasmic reticulum (ER Tracker Blue) [6] | Structure (SMILES) | efficacy (light-induced activity) at 1% oxygen level vs normoxia [1] | EC50 [2, 7] [M] | EC50 [2, 8] [M] | EC50 [2, 9] [M] | efficacy (light-induced activity) at 1% oxygen level vs normoxia [2] | EC50 [3, 10] [µM] | EC50 [3, 11] [µM] | EC50 values, light-induced toxicity (in words) [3]
1 | > 0.0001 | > 0.0001 | > 0.0001 | 42 | > 90 | 74 | more striking co-localisation | F[B-]1(F)n2c(-c3ccccc3)cc(-c3ccccc3)c2N=C2C(c3ccccc3)=CC(c3ccccc3)=[N+]21 [ADPM01] | completely ablated | > 0.0001 | > 0.0001 | > 0.0001 | completely ablated | 2.8 to 34 | 0.26 to 22 | micro-molar range
2 | > 0.0001 | 6.1e-06 | 1.5e-06 | – | – | – | – | COc1ccc(C2=[N+]3C(=Nc4c(-c5ccccc5)c(Br)c(-c5ccc(OC)cc5)n4[B-]3(F)F)C(c3ccccc3)=C2Br)cc1 [ADPM06] | only a partial reduction in light-induced activity | > 0.0001 | 7.1e-06 | 1.6e-06 | only a partial reduction in light-induced activity | 0.037 to 5.4 | 0.014 to 0.63 | nano-molar range
